Drawing on PMC4673829 (Nature Communications, 2015), this text covers Kd for 3 compounds.

The target in one assay is T1, JARID1A PHD3 domain (Homo sapiens, UniProt P29375).
T1 construct: made in house; host or cells: Escherichia coli Rosetta BL21 DE3 pLysS
T1 sequence (P29375 1607-1661 limits assumed): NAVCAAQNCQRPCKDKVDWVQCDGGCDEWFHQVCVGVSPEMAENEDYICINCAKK
The assay can be described thus: ITC binding to JARID1A PHD3 domain. The text has this: (§1) We use isothermal titration calorimetry (ITC) to obtain full thermodynamic descriptions for binding of H3K4me3, H3C4me3 and H3G4 peptides to five representative reader proteins that specifically recognize H3K4me3 (the PHD zinc fingers of JARID1A, BPTF, TAF3 and the tudor domains of the Royal family of SGF29 and JMJD2A) (Table 1 and Fig. 1b,c)[19][20][21][22][23]. The five reader pockets are different in the aromatic cage composition and architecture, which allows us to examine the effect of individual constitution of the aromatic cage on binding differences.
(§2) Reader proteins were prepared and purified following the previously reported procedure. Briefly, the reader domains of BPTF, JMJD2A, JARID1A, TAF3 and SGF29 were expressed in Escherichia coli Rosetta BL21 DE3 pLysS hosts, using Terrific Broth medium. The bacteria were cultured to OD600 ∼0.6 at 37 °C after which they were induced with 0.5 mM isopropyl-b-D-thiogalactoside overnight at 16 °C. Proteins were purified using Ni-NTA beads for 6xHis-tagged proteins or glutathione sepharose beads for GST tagged proteins, respectively. After purification, the 6xHis tag was cleaved from JMJD2A and SGF29 using TEV-protease and the GST tag was cleaved from TAF3 using thrombin. Protein were purified by size-exclusion chromatography using a Superdex 75 column (GE Healthcare). SGF29 was eluted in 25 mM Tris, 50 mM NaCl, 1 mM dithiothreitol at pH 7.5; JMJD2A and TAF3 were eluted in 50 mM Tris at pH 7.5; BPTF and JARID1A were eluted in 50 mM Tris, 20 mM NaCl at pH 7.5. All proteins were made filter sterile and stored at 4 °C until further use.
(§3) Concentrations of histone peptides were measured by ultraviolet spectroscopy at 205 nm, following the previously reported method. All histone peptides were titrated to the same batch of reader proteins. […] Heats of dilution for histone peptides were determined in control experiments, and were subtracted from the titration binding data before curve fitting. […] For each reader–histone system, 5–7 independent ITC experiments were carried out. […]

Another assay addresses T2, TAF3 PHD domain (Homo sapiens, UniProt Q5VWG9).
T2 sequence (Q5VWG9 857-924): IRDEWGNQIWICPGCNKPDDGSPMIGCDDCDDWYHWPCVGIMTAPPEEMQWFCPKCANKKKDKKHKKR
The assay can be described thus: ITC binding to TAF3 PHD domain. The conditions noted are these: 5–7 independent experiments.
From the text: as §1, §2, §3

In a further assay the target is T3, BPTF PHD zinc finger (Homo sapiens, UniProt Q12830).
T3 construct: the PHD zinc fingers of JARID1A, BPTF, TAF3 and the tudor domains of the Royal family of SGF29 and JMJD2A; made in house; host or cells: Escherichia coli Rosetta BL21 DE3 pLysS
The experiment in a line: ITC binding to BPTF PHD zinc finger. The note with it: ITC (Auto-iTC200), one set of sites; 350–600 μM 10-mer peptide into 25–40 μM protein (eluted in 50 mM Tris, 20 mM NaCl, pH 7.5); 5–7 independent experiments; stoichiometry n=0.95–1.05.
From the text: as §1
(§4) Reader proteins were prepared and purified following the previously reported procedure. Briefly, the reader domains of BPTF, JMJD2A, JARID1A, TAF3 and SGF29 were expressed in Escherichia coli Rosetta BL21 DE3 pLysS hosts, using Terrific Broth medium. The bacteria were cultured to OD600 ∼0.6 at 37 °C after which they were induced with 0.5 mM isopropyl-b-D-thiogalactoside overnight at 16 °C. […]
as §3

In the next assay the target is T4, JMJD2A tudor domain (Homo sapiens, UniProt O75164).
T4 construct: the PHD zinc fingers of JARID1A, BPTF, TAF3 and the tudor domains of the Royal family of SGF29 and JMJD2A; 6xHis (cleaved yes); made in house; host or cells: Escherichia coli Rosetta BL21 DE3 pLysS
T4 sequence (O75164 897-1011 limits assumed): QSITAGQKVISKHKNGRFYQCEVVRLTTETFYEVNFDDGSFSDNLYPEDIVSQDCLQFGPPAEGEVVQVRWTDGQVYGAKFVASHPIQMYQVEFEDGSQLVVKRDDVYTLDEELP
The assay can be described thus: ITC binding to JMJD2A tudor domain. The conditions noted are these: 5–7 independent experiments.
From the text: as §1, §4, §3

Assay [1] addresses T5, SGF29 tandem tudor domain (Homo sapiens, UniProt Q96ES7).
T5 construct: 6xHis (cleaved yes); made in house; host or cells: Escherichia coli Rosetta BL21 DE3 pLysS
T5 sequence (Q96ES7 115-293): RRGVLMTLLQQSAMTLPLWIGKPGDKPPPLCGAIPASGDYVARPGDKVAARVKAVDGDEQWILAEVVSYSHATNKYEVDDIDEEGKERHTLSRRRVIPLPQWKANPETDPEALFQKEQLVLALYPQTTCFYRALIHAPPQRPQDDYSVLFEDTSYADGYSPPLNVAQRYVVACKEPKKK
The experiment in a line: ITC binding to SGF29 tandem tudor domain. The conditions noted are these: ITC (Auto-iTC200), one set of sites; 350–600 μM 10-mer peptide into 25–40 μM protein (eluted in 25 mM Tris, 50 mM NaCl, 1 mM dithiothreitol, pH 7.5); 5–7 independent experiments; stoichiometry n=0.95–1.05.
From the text: as §1, §4, §3

[2] abbreviates: ITC (Auto-iTC200), one set of sites, 350–600 μM 10-mer peptide into 25–40 μM protein (eluted in 50 mM Tris, 20 mM NaCl, pH 7.5), 5–7 independent experiments, stoichiometry n=0.95–1.05, read-out: Kd.
Where [3] appears, read: ITC (Auto-iTC200), one set of sites, 350–600 μM 10-mer peptide into 25–40 μM protein (eluted in 50 mM Tris, pH 7.5), stoichiometry n=0.95–1.05, read-out: Kd.

Like-named read-outs stand apart in the source and are kept apart here.

With `C[C@H](N)C(=O)N[C@@H](CCCNC(=N)N)C(=O)N[C@H](C(=O)N[C@@H](CCCCC(C)(C)C)C(=O)N[C@@H](CCC(N)=O)C(=O)N[C@H](C(=O)N[C@@H](C)C(=O)N[C@@H](CCCNC(=N)N)C(=O)N[C@@H](CCCCN)C(=O)N[C@@H](CO)C(=O)O)[C@@H](C)O)[C@@H](C)O` [H3C4me3], the Kd was 340 nM on JARID1A PHD3 domain (setting [2]); 790 nM on TAF3 PHD domain (setting [3]); 760 nM at BPTF PHD zinc finger; 16000 nM at JMJD2A tudor domain (ITC, 3 mM H3C4me3 into 200 μM JMJD2A); 1400 nM in assay [1].

`C[C@H](N)C(=O)N[C@@H](CCCNC(=N)N)C(=O)N[C@H](C(=O)NCC(=O)N[C@@H](CCC(N)=O)C(=O)N[C@H](C(=O)N[C@@H](C)C(=O)N[C@@H](CCCNC(=N)N)C(=O)N[C@@H](CCCCN)C(=O)N[C@@H](CO)C(=O)O)[C@@H](C)O)[C@@H](C)O` [H3G4]: the Kd turned out to be 88000 nM on JARID1A PHD3 domain and 36000 nM at TAF3 PHD domain (ITC, 3 mM H3G4 into 200 μM TAF3).

Turning to `C[C@H](N)C(=O)N[C@@H](CCCNC(=N)N)C(=O)N[C@H](C(=O)N[C@@H](CCCC[N+](C)(C)C)C(=O)N[C@@H](CCC(N)=O)C(=O)N[C@H](C(=O)N[C@@H](C)C(=O)N[C@@H](CCCNC(=N)N)C(=O)N[C@@H](CCCCN)C(=O)N[C@@H](CO)C(=O)O)[C@@H](C)O)[C@@H](C)O` [H3K4me3], the Kd on JARID1A PHD3 domain (setting [2]) worked out at 94 nM; at TAF3 PHD domain (setting [3]), 24 nM; on BPTF PHD zinc finger it was 490 nM; on JMJD2A tudor domain (ITC (Auto-iTC200), one set of sites, 350–600 μM 10-mer peptide into 25–40 μM protein (eluted in 50 mM Tris, pH 7.5), stoichiometry n=0.95–1.05), 940 nM; in assay [1], 1700 nM.
